Experimental data taken from publication PMC12051620, “Molecular basis underlying the specificity of an antagonist AA92593 for mammalian melanopsins” (The Journal of Biological Chemistry, 2025).

Biological target: T1, mouse melanopsin WT (Mus musculus, UniProt Q9QXZ9)
T1 construct: expressed in transfected cells; host or cells: COS-1
T1 sequence (Q9QXZ9 1-381 limits assumed): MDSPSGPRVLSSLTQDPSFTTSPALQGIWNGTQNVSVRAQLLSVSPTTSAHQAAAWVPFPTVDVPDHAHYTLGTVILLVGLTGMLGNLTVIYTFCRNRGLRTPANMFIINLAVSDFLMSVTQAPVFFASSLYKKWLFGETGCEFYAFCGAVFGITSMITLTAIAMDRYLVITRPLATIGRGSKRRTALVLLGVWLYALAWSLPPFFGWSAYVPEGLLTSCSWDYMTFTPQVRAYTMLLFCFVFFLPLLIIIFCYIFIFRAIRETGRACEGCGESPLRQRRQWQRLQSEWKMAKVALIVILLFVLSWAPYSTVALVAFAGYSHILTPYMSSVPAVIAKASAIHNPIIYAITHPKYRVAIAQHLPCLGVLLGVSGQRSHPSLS
Test: GsX GloSensor assay with Gsα/q11
Format: cell-based
Settings: COS-1 cells
From the text: To quantify the antagonistic effects of AA92593 on mammalian melanopsins, we used the GsX GloSensor assay ([12], [13], [14]). This assay measures GPCR-induced increases in intracellular cAMP levels even for Gq-, Gi/o-, or G12-coupled receptors by using Gsα chimeras ([12], [13], [14]). Because melanopsin is primarily coupled with Gq-type G proteins, a Gsα mutant with 11 C-terminal sequence of Gqα (Gsα/q11) was expressed in COS-1 cells with melanopsin and a luciferase-based cAMP biosensor (see “Experimental procedures”) ([15]). This assay enables the measurement of Gq activation by melanopsin as cAMP production (an increase in luminescence). In this study, we used C-terminal–truncated melanopsin constructs to increase the expression levels with minimal compromise in functionality ([9], [16], [17], [18], [19]). […] In addition, the C-terminal region is located far from the binding site of AA92593 (see below). Hereafter, the C-terminal–truncated melanopsin constructs are named as “WT.”
In the constructs for melanopsin expression (opsin name - GenBank ID: human melanopsin - NM_033282.4, mouse melanopsin - NM_013887.2, Xenopus Opn4x - NM_001085674.1, chicken opn4-1 - NM_001397961.1, B. belcheri melanopsin - AB205400.1, and B. lanceolatum melanopsin - MF464477.1), the C-terminal amino acid residues (94, 140, 200, 214, 296, and 308 residues for human ([9]), mouse ([9]), Xenopus, chicken, belcheri ([16]), and lanceolatum melanopsins, respectively) were removed, the 1D4 tag sequence (ETSQVAPA) was added, and inserted into the EcoRI/NotI site in a mammalian expression vector pMT. Jumping spider rhodopsin-1 (GenBank ID: AB251846.1) was also added with the 1D4 tag and inserted into pMT vector. Human and mouse melanopsins, and jumping spider rhodopsin-1 in pCDNA3.1 were kindly provided from Drs. Akihisa Terakita and Mitsumasa Koyanagi (Osaka Metropolitan University). In this paper, each opsin with the C-terminal sequence modifications as described above is denoted “WT.” Bovine Gsα and its mutants Gsα/q11 and Gsα/i11 (C-terminal 11 residues are replaced with Gqα and Giα, respectively) were also inserted into the pMT vector. The GFP-tagged melanopsin constructs, in which EGFP protein fused with C-termini of melanopsins, were prepared as previously described ([9], [50]). […]
For GloSensor assay, opsins, GloSensor assay sensor (coded by pGlo-22F), and NanoBiT-tagged G proteins were transiently expressed in COS-1 cells (kindly provided from Dr David Farrens, Oregon Health and Science University) using PEI as described previously ([24], [52]). […] For GFP-fluorescence microscopy, a 35-mm cell culture dish (IWAKI) was transfected with 2 μg melanopsin-GFP plasmid and 8 μg PEI in 400 μl Opti-mem and 1.2 ml D-MEM. […]

[1] = relative peak cAMP response vs no AA92593

COc1ccc(S(=O)(=O)N2CCCCC2)cc1C [AA92593]
Hill fitting parameter rate of dose-response curve: −1.15 ± 0.18 | IC50 (0.1 μM 9-cis-retinal, white light 10 s, n = 3, read-out: IC50, reduction in peak cAMP responses upon Gsα/q11 activation): 2980 ± 580 nM | Hill fitting parameter max of dose-response curve [1]: 98.86 ± 1.11 | Hill fitting parameter min of dose-response curve [1]: 46.53 ± 4.15
